# Reference: patent US20220064105A1, “CRYSTALLINE EDG-2 RECEPTOR ANTAGONIST AND METHODS OF MAKING” (Sanofi, priority 2020, published 2022)
# Marks after values point to notes of the source that are not given here.
# Columns and labels:
# [1] = Dynamic vapor sorption (DVS); type: physicochemical; settings: 25° C.
# Method: Moisture sorption/desorption isotherms are recorded on a DVS-1 from SURFACE MEASUREMENT SYSTEMS. Two cycles are run at 25° C., in which the Relative Humidity (RH) is stepped from 0 to 95% and back to 0%. The data is evaluated with the software DVSWin V. 2.15.
# [2] = Solubility of polymorphs at pH 7.4 in phosphate buffer at 25° C.; type: physicochemical; settings: pH 7.4 phosphate buffer; for Concentration (equilibrium solubility): 24 hr
# Method: The solubility of the different polymorphs was determined at pH 7.4 in phosphate buffer at 25° C. Samples were analyzed as a function of time for each form to determine the equilibrium values. The residual solids from each sample were analyzed to verify that the form was unchanged during the experiment. The concentration (mg/mL) versus time data is listed below for each form: […]
# [3] = Slurry stability study at room temperature (25° C.), 4 weeks, resulting form by FTIR; type: physicochemical; settings: for Final form after slurry: 25° C., 4 weeks, FTIR
# Method: Slurry stability Maturation studies were initially conducted for the purpose of identifying the most […] stable form at room temperature (25° C.).
# In this set of experiments, both the individual forms and mixtures of forms were slurried in several solvents for 4 weeks, then filtered and analyzed to determine the resulting form. The first set of experiments included pure Form 1, Form 2, Form 3, and mixtures of these forms in equal amounts. The solvents included methanol, ethyl acetate, MEK, and methyl THF in order to investigate a range of solvent polarity. Additional experiments were conducted with a mixture of Form 1 and Form 4 in MEK and methanol.
# Analysis was performed by FTIR due to ease of analysis for small quantities. It is interesting to note that the acid carbonyl is shifted to a different location for each polymorph. The results for the first set of experiments are listed below, comparing the starting form with the final form.
# [4] = Slurry conversion studies at 40-70° C. with Forms 1 and 2; type: physicochemical
# Method: Slurry conversation studies were also conducted at 40-70° C. with Forms 1 and 2 to determine a transition temperature between the forms. A mixture of Form 1 and Form 2 at a (1:1 ratio) was slurried at 40° C., 50° C., 60° C., and 70° C. in two different solvents at each temperature and then analyzed to determine the direction of transformation. At 40° C. and 50° C., Methanol and MEK were used. At 60° C. and 70° C. MEK and 1-Pentanol were used.
# [5] = Physical stability of solid state forms at 80° C./75% RH, by FTIR; type: physicochemical; settings: 1 week (7 days), open glass vials
# Method: The physical stability of Forms 1, 2, and 3 was investigated at 80° C./75% RH in order to determine if interconversion was observed. The samples were examined by FTIR after stressing 1 week in open glass vials.
# [6] = system: mouse model of skin fibrosis; settings: cited from earlier work
# [7] = system: patients with diffuse cutaneous systemic sclerosis SSc (dcSSc); settings: cited from earlier work
# [8] = Solubility of Compound I in solvents at room temperature (about 25° C.); type: physicochemical; settings: thermodynamic from solid
# Method: Compound I was dissolved in a variety of solvents at room temperature (about 25° C.) to provide solutions of Compound I with a maximum concentration of 10 mg/mL. The input material in these experiments was a mixture of polymorphic forms 1, 2, and 3.
# The maximum concentration used in this set of experiments was 10 mg/mL. Solubility was highest in THF at >10 mg/mL. […] The solubility was estimated at less than 2 mg/mL for: 1-butanol, butyl acetate, hexane, ethanol, ethyl acetate, isobutyl alcohol, 1-pentanol, isopropanol, acetonitrile, dichloromethane, chloroform, and water.
# [9] = Estimated hot solubility in solvents at elevated temperature (approximately solvent boiling point); type: physicochemical; settings: thermodynamic from solid, read-out: Hot Solubility (est)
# Method: Compound I was dissolved in a variety of solvents at elevated temperature (approximately at solvent boiling point) to provide solutions of Compound I with a maximum concentration of 15 mg/mL. The input material in these experiments was a mixture of polymorphic forms 1, 2, and 3.
# When concentrations of Compound I was greater than 2 mg/mL, the solutions were filtered and evaporated at 25° C. to isolate the solid.
# [10] = slurried in 1-pentanol at 60° C.
# [11] = slurried in 1-pentanol at 70° C.
structure (smiles),measurement,setting,value
"COc1ccc(C(=O)NC2(C(=O)O)Cc3ccccc3C2)cc1OCCc1cccc(C)c1 [Form 1, 2-(4-methoxy-3-(3-methylphenethoxy)benzamido)-2,3-dihydro-1H-indene-2-carboxylic acid]",Reversible water uptake,[1],less than 1%
same,Concentration (solubility),[2]; 1 hr,42 µg/mL
same,Concentration (solubility),[2]; 2 hr,41 µg/mL
same,Concentration (solubility),[2]; 3 hr,42 µg/mL
same,Concentration (equilibrium solubility),[2],0.042 mg/mL
same,Relative stability of the crystal forms,"[3]; room temperature (25° C.), from slurry data set",most stable form
same,Final form after slurry,[3]; slurried in MEK,Form 1
same,Final form after slurry,[3]; slurried in ethyl acetate,Form 1
same,Final form after slurry,[3]; slurried in methanol,Form 1
same,Final form after slurry,[3]; slurried in methyl THF,Form 1
same,Resulting form after slurry,[4]; [10],converts to crystalline Form 2
same,Resulting form after slurry,[4]; [11],converts to crystalline Form 2
same,Resulting form after slurry,[4]; slurried in MEK at 60° C.,converts to crystalline Form 2
same,Resulting form after slurry,[4]; slurried in MEK at 70° C.,converts to crystalline Form 2
same,Change in FTIR spectrum after storage,[5],unchanged FTIR
"COc1ccc(C(=O)NC2(C(=O)O)Cc3ccccc3C2)cc1OCCc1cccc(C)c1 [Forms 1, 2, 3]",Final form after slurry,[3]; slurried in MEK,Form 1
same,Final form after slurry,[3]; slurried in methanol,Form 1
same,Final form after slurry,[3]; slurried in methyl THF,Form 1
"COc1ccc(C(=O)NC2(C(=O)O)Cc3ccccc3C2)cc1OCCc1cccc(C)c1 [Compound I, 2-(4-methoxy-3-(3-methylphenethoxy)benzamido)-2,3-dihydro-1H-indene-2-carboxylic acid]",Collagen content,[6],reduced collagen content
same,Dermal thickening,[6],reversed dermal thickening
same,Myofibroblast differentiation,[6],significantly inhibited myofibroblast differentiation
same,Outcome measures,[7],improved outcome measures
same,Target engagement,[7],demonstrated target engagement
same,Tolerability,[7],well tolerated
same,solubility,"[8]; organic solvent or mixture, 1-butanol, read-out: Solubility (estimated)",< 2000 µg/mL
same,solubility,"[8]; organic solvent or mixture, 1-pentanol, read-out: Solubility (estimated)",< 2000 µg/mL
same,solubility,"[8]; organic solvent or mixture, MEK, read-out: Solubility",4000 to 6000 µg/mL
same,solubility,"[8]; organic solvent or mixture, THF, read-out: Solubility",> 10000 µg/mL
same,solubility,"[8]; organic solvent or mixture, acetone, read-out: Solubility",4000 to 6000 µg/mL
same,solubility,"[8]; organic solvent or mixture, acetonitrile, read-out: Solubility (estimated)",< 2000 µg/mL
same,solubility,"[8]; organic solvent or mixture, butyl acetate, read-out: Solubility (estimated)",< 2000 µg/mL
same,solubility,"[8]; organic solvent or mixture, chloroform, read-out: Solubility (estimated)",< 2000 µg/mL
same,solubility,"[8]; organic solvent or mixture, dichloromethane, read-out: Solubility (estimated)",< 2000 µg/mL
same,solubility,"[8]; organic solvent or mixture, ethanol, read-out: Solubility (estimated)",< 2000 µg/mL
same,solubility,"[8]; organic solvent or mixture, ethyl acetate, read-out: Solubility (estimated)",< 2000 µg/mL
same,solubility,"[8]; organic solvent or mixture, hexane, read-out: Solubility (estimated)",< 2000 µg/mL
same,solubility,"[8]; organic solvent or mixture, isobutyl alcohol, read-out: Solubility (estimated)",< 2000 µg/mL
same,solubility,"[8]; organic solvent or mixture, isopropanol, read-out: Solubility (estimated)",< 2000 µg/mL
same,solubility,"[8]; organic solvent or mixture, methanol, read-out: Solubility",2000 to 3000 µg/mL
same,solubility,"[8]; water, read-out: Solubility (estimated)",< 2000 µg/mL
same,solubility,"[9]; 40 °C, organic solvent or mixture, Dichloromethane (DCM)",< 4000 µg/mL
same,solubility,"[9]; 56 °C, organic solvent or mixture, Acetone",> 10000 µg/mL
same,solubility,"[9]; 61 °C, organic solvent or mixture, Chloroform",4000 to 5000 µg/mL
same,solubility,"[9]; 65 °C, organic solvent or mixture, Methanol",> 10000 µg/mL
same,solubility,"[9]; 69 °C, organic solvent or mixture, Hexane",< 2000 µg/mL
same,solubility,"[9]; 77 °C, organic solvent or mixture, Ethyl Acetate",5000 to 10000 µg/mL
same,solubility,"[9]; 78 °C, organic solvent or mixture, Ethanol",> 10000 µg/mL
same,solubility,"[9]; 80 °C, organic solvent or mixture, Methyl Ethyl Ketone (MEK)",> 15000 µg/mL
same,solubility,"[9]; 82 °C, organic solvent or mixture, 2-Propanol",7000 to 10000 µg/mL
same,solubility,"[9]; 82 °C, organic solvent or mixture, Acetonitrile",7000 to 10000 µg/mL
same,solubility,"[9]; 100 °C, Water",< 2000 µg/mL
same,solubility,"[9]; 108 °C, organic solvent or mixture, Isobutyl Alcohol",> 10000 µg/mL
same,solubility,"[9]; 118 °C, organic solvent or mixture, 1-Butanol",> 10000 µg/mL
same,solubility,"[9]; 126 °C, organic solvent or mixture, Butyl Acetate",~10000 µg/mL
same,solubility,"[9]; 138 °C, organic solvent or mixture, 1-Pentanol",> 10000 µg/mL
COc1ccc(C(=O)NC2(C(=O)O)Cc3ccccc3C2)cc1OCCc1cccc(C)c1 [mixtures of Form 4 and Form 1],Final form after slurry,[3]; slurried in MEK,convert to Form 1
same,Final form after slurry,[3]; slurried in methanol,convert to Form 1
"COc1ccc(C(=O)NC2(C(=O)O)Cc3ccccc3C2)cc1OCCc1cccc(C)c1 [Form 4, 2-(4-methoxy-3-(3-methylphenethoxy)benzamido)-2,3-dihydro-1H-indene-2-carboxylic acid]",Equilibrium solubility relative to Form 1,[2]; 24 hours,more than double
same,Concentration (solubility),[2]; 1 hr,79 µg/mL
same,Concentration (solubility),[2]; 2 hr,89 µg/mL
same,Concentration (solubility),[2]; 3 hr,105 µg/mL
same,Concentration (equilibrium solubility),[2],0.102 mg/mL
"COc1ccc(C(=O)NC2(C(=O)O)Cc3ccccc3C2)cc1OCCc1cccc(C)c1 [Form 3, 2-(4-methoxy-3-(3-methylphenethoxy)benzamido)-2,3-dihydro-1H-indene-2-carboxylic acid]",Equilibrium solubility relative to Form 1,[2]; 24 hours,more than double
same,Concentration (solubility),[2]; 1 hr,83 µg/mL
same,Concentration (solubility),[2]; 2 hr,93 µg/mL
same,Concentration (solubility),[2]; 3 hr,95 µg/mL
same,Concentration (equilibrium solubility),[2],0.097 mg/mL
same,Final form after slurry,[3]; slurried in MEK,converts to crystalline Form 1
same,Final form after slurry,[3]; slurried in ethyl acetate,converts to crystalline Form 1
same,Final form after slurry,[3]; slurried in methanol,converts to crystalline Form 1
same,Final form after slurry,[3]; slurried in methyl THF,converts to crystalline Form 1
same,Change in FTIR spectrum after storage,[5],unchanged FTIR
"COc1ccc(C(=O)NC2(C(=O)O)Cc3ccccc3C2)cc1OCCc1cccc(C)c1 [Form 2, 2-(4-methoxy-3-(3-methylphenethoxy)benzamido)-2,3-dihydro-1H-indene-2-carboxylic acid]",24 hour solubility greater than Form 1,[2]; 24 hours,more than 30%
same,Concentration (solubility),[2]; 1 hr,34 µg/mL
same,Concentration (solubility),[2]; 2 hr,39 µg/mL
same,Concentration (solubility),[2]; 3 hr,43 µg/mL
same,Concentration (equilibrium solubility),[2],0.057* mg/mL
same,Final form after slurry,[3]; slurried in MEK,converts to crystalline Form 1
same,Final form after slurry,[3]; slurried in ethyl acetate,Form 2
same,Final form after slurry,[3]; slurried in methanol,Form 2
same,Final form after slurry,[3]; slurried in methyl THF,Form 2
same,Resulting form after slurry,[4]; slurried in MEK at 40° C.,converts to crystalline Form 1
same,Resulting form after slurry,[4]; slurried in MEK at 50° C.,converts to crystalline Form 1
same,Resulting form after slurry,[4]; slurried in methanol at 40° C.,converts to crystalline Form 1
same,Resulting form after slurry,[4]; slurried in methanol at 50° C.,converts to crystalline Form 1
same,Change in FTIR spectrum after storage,[5],unchanged FTIR
COc1ccc(C(=O)NC2(C(=O)O)Cc3ccccc3C2)cc1OCCc1cccc(C)c1 [mixture of Form 1 and Form 2],Resulting form after slurry,[4]; [10],Form 2
same,Resulting form after slurry,[4]; [11],Form 2
same,Resulting form after slurry,[4]; slurried in MEK at 40° C.,Form 1
same,Resulting form after slurry,[4]; slurried in MEK at 50° C.,Form 1
same,Resulting form after slurry,[4]; slurried in MEK at 60° C.,Form 2
same,Resulting form after slurry,[4]; slurried in MEK at 70° C.,Form 2
same,Resulting form after slurry,[4]; slurried in methanol at 40° C.,Form 1
same,Resulting form after slurry,[4]; slurried in methanol at 50° C.,Form 1
